According to US20190152946A1, “Novel Compounds” (GlaxoSmithKline Intellectual Property Development Limited, priority 2016, published 2019):

Experiments:
[1] = molecular target: T1, AURKA (Homo sapiens, UniProt O14965); assay: Expression proteomics in THP-1 cells, AURKA level; assay type: cell-based; details: AURKA protein log2 fold change, 24 h, 1.0 μM
T1 construct: endogenous in cells; host or cells: THP-1
T1 sequence (O14965 1-403): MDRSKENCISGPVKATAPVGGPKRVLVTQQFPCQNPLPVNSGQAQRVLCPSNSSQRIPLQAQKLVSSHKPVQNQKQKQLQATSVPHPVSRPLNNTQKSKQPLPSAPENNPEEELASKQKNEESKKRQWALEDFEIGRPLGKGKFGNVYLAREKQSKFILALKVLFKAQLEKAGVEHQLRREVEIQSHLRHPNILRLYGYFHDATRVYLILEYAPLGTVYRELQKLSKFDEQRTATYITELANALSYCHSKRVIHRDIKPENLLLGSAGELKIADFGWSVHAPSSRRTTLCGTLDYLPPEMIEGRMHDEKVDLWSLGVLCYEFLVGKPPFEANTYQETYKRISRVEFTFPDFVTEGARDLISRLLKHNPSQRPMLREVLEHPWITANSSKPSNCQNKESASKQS
Experimental: (§1) THP-1 cells were seeded at a concentration of 3×10^6 cells in T175 flasks with 60 mL growth medium (RPM11640+10% FBS). […] of a 10× compound solution prepared in growth medium (DMSO), IAP PROTAC) was added and the cells were treated for the indicated time points (6 or 24 h) at 37° C., 5% CO2. For harvesting the cells were collected into falcon tubes on ice, centrifuged and washed twice in cold PBS (Life technologies). After the last washing step the supernatant was removed and the pellets were snap-frozen in liquid N2 and stored at −80° C. and lysed in 2% SDS for 3 min at 95° C. in a thermomixer (Thermo Fisher Scientific), followed by digestion of DNA with Benzonase at 37° C. for 1.5 h. Lysate was cleared by centrifugation an protein concentration in supernatant was determined by BCA assay.
(§2) Leukemia 25, 89-100 (2011).
(§3) Samples were dried in vacuo and resuspended in 0.05% trifluoroacetic acid in water. […]
(§4) Reporter ion intensities were read from raw data and multiplied with ion accumulation times (the unit is milliseconds) so as to yield a measure proportional to the number of ions;
(§5) Nat Biotech 29, 255-265 (2011). this measure is referred to as ion area Savitski, M. M. et al. Delayed Fragmentation and Optimized Isolation Width Settings for Improvement of Protein Identification and Accuracy of Isobaric Mass Tag Quantification on Orbitrap-Type Mass Spectrometers. […]

[2] = molecular target: T2, PTK2B (Homo sapiens, UniProt Q14289); assay: Expression proteomics in THP-1 cells, PTK2B level; assay type: cell-based; details: PTK2B protein log2 fold change, 24 h, 1.0 μM
T2 construct: endogenous in cells; host or cells: THP-1
T2 sequence (Q14289 whole entry): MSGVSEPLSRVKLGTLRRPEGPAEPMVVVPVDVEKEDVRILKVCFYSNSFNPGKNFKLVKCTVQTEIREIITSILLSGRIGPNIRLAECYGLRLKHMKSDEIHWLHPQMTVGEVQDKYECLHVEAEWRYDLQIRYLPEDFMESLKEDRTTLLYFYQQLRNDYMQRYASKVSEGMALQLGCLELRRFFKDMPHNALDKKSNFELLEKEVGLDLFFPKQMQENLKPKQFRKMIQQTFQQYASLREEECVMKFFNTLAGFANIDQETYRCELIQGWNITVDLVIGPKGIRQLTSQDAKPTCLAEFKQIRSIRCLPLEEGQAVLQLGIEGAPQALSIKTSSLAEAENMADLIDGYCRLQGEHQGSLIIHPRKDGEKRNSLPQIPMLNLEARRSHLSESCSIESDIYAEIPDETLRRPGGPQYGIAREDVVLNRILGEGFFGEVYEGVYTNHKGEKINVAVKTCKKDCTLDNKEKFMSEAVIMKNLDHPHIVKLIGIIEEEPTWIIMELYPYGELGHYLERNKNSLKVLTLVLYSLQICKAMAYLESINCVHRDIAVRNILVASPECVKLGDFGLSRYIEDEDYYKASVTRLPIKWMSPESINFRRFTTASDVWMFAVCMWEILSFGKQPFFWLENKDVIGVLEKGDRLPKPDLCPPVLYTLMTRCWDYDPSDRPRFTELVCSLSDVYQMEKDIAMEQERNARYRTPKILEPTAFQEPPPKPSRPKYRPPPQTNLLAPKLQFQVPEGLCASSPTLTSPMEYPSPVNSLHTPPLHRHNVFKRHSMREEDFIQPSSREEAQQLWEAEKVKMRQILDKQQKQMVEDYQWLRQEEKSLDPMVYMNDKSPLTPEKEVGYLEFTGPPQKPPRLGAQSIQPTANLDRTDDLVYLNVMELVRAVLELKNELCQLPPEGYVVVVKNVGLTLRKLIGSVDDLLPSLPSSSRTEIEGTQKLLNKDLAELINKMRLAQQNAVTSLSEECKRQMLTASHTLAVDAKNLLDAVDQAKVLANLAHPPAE
Experimental: as §1, §2, §3, §4, §5

Compound: CNC(=O)c1ccccc1Nc1nc(Nc2ccc(N3CCN(CCOCCOCCOCCOc4ccc5c(c4)CN(C(=O)[C@@H](NC(=O)[C@H](C)NC)C(C)(C)C)[C@H](C(=O)N[C@@H]4CCCc6ccccc64)C5)CC3)cc2)ncc1Cl [IAP, (S)-7-(2-(2-(2-(2-(4-(4-((5-Chloro-4-((2-(methylcarbamoyl)phenyl)amino)pyrimidin-2-yl)amino)phenyl)piperazin-1-yl)ethoxy)ethoxy)ethoxy)ethoxy)-2-((S)-3,3-dimethyl-2-((S)-2-(methylamino)propanamido)butanoyl)-N-((R)-1,2,3,4-tetrahydronaphthalen-1-yl)-1,2,3,4-tetrahydroisoquinoline-3-carboxamide]
- log2fc_IAP_24 h_1.0 μM_n1 ([1]; replicate n1): −1.81
- log2fc_IAP_24 h_1.0 μM_n2 ([1]; replicate n2): −1.42
- log2fc_IAP_24 h_1.0 μM_n1 ([2]; replicate n1): −1.78
- log2fc_IAP_24 h_1.0 μM_n2 ([2]; replicate n2): −2.06
